{"source": "patent US20250270230A1", "about": "“NOVEL SYNTHETIC STEPS FOR THE MANUFACTURING METHOD OF THE PDE4B-INHIBITOR 1-({(5R)-2-[4-(5-CHLOROPYRIMIDINE-2-YL)PIPERIDINE-1-YL]-5-OXIDO-6,7-DIHYDROTHIENO[3,2-D]PYRIMIDINE-4-YL}AMINO)CYCLOBUTYL]METHANOL” (Boehringer Ingelheim International GmbH, priority 2023, published 2025)", "key": {"[1]": {"biological_target": "PDE4B subunit (Homo sapiens, UniProt Q07343)", "sequence (Q07343 whole entry)": "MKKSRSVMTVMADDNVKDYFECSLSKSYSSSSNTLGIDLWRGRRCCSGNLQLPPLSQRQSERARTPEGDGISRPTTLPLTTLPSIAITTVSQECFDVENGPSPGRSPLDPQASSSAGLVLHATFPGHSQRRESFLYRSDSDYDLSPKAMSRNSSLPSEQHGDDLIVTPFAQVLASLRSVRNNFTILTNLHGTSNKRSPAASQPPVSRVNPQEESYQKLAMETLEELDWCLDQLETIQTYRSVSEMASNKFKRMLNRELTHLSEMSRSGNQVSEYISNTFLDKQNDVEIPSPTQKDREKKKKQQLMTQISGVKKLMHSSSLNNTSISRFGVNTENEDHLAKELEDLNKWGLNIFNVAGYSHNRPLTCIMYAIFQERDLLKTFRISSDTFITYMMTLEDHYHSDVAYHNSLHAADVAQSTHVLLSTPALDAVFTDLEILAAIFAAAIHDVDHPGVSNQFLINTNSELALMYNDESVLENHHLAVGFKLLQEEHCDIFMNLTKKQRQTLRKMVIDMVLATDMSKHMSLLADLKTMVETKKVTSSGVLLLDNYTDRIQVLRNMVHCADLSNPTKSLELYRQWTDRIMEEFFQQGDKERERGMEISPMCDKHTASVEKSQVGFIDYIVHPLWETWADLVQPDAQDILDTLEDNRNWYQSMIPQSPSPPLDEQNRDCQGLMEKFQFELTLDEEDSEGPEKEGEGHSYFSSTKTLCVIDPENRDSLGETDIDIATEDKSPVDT", "settings": "cited from earlier work"}, "[2]": {"test_system": "patients with idiopathic pulmonary fibrosis (IPF)", "settings": "Phase II, cited from earlier work"}, "[3]": {"assay": "Form conversion from crystalline Form A to Form B followed by Raman spectroscopy", "type": "physicochemical", "settings": "40° C., n-propanol/water, seeding with Form B", "protocol": "Form A was charged to the reactor as the starting material. 7.0 VP of n-propanol and […] were used along with Raman probe to confirm the rate of conversion by holding the conversion at different temperature. The rate of form conversion from crystalline Form A to crystalline Form B of the PDE4B-inhibitor of formula XX was studied at 20, 40 and 70° C. with 10% seeding with crystalline Form B seeding crystals.\nAt 20 or 70° C., the conversion rate was similar, but definitely slower than at 40° C.\nThe temperature of 40° C. allows a full conversion of crystalline Form A into crystalline Form B in less than 4 hours, preferably even in 2 hours (see also FIGS. 1a and 1b). […] However, the crystallization procedure to yield the Compound of formula XX as crystalline Form B (on production scale) as described in Chapter 3.10 reduces the crystallization time down to not more than 9 hours from the timepoint of seeding, which means a significant improvement in the cycling time."}, "[4]": {"assay": "Competitive slurries containing Form A, Form B and Form C (thermodynamic stability)", "type": "physicochemical", "protocol": "Few other crystalline forms were observed during the initial and extended solid form screening by using various techniques. […] Its thermodynamic stability has been confirmed by competitive slurries containing Form A, Form B and Form C. Form B was the predominant form in all solvents and temperature conditions, except for the solvent water (with a water activity of 1) at temperatures between 5 and 25° C. which yielded Form C."}, "[5]": {"assay": "Storage stability of intermediates at room temperature", "type": "physicochemical", "text": "The alternative synthesis method to manufacture Intermediate VIII has several advantages over the method of manufacturing Intermediate VIII (or Intermediate G as it is called in U.S. Pat. No. […]): • The new Suzuki-reaction process offers much better control of impurities by avoiding the formation of N-methylation at the piperidine ring. The methylation of the piperidine-ring occurs in the original process according to U.S. Pat. No. 8,609,670 during the use of methanol and 4M hydrochloric acid in 1,4-dioxane and takes place via the in situ formed cancerogenic compound methyl chloride. […] 0.05 m % (0.02 mol %) Pd(amphos)2Cl2 is sufficient for the Suzuki cross-coupling reaction to complete the conversion in less than 3 hours. In literature, significant higher amounts of Pd-catalyst have been described so far [a) K.-T.-Wong et al, Org. […] Second, the reproducibility of yield and quality is very high and consistent as observed on production scale over several batches. […]"}, "[6]": {"assay": "Stress test-experiments of the hydrolysis reactions of Intermediate XVII", "type": "physicochemical", "protocol": "(§1) It is shown, that hydrolysis toward IMP-A occurs at 60° C. and 90° C. (examples 1 and 2). The hydrolysis reaction itself is promoted by titanium residues, as example 2 with 671 mg/kg titanium leads to higher impurity levels of IMP-A compared to example 1, which has a lower titanium content (<251 mg/kg).\nas §1, with “mg/kg titanium content leads to” for “mg/kg titanium leads to”"}, "[7]": {"assay": "Long-term stability of water-free material regarding hydrolysis side-reactions", "type": "physicochemical", "settings": "water-free form (recrystallization variant A, 1,4-dioxane)", "text": "For example with the additional recrystallization step according to variant A (recrystallization from 1,4-dioxane) Intermediate XVIII is obtained as a water-free form (examples 1 and 2). The water-free material is long-term stable (>12 months) regarding hydrolysis side-reactions, which can occur at two positions of Intermediate XVII by forming IMP-A and IMP-B (see Scheme 5).\nIn comparison to the process as described in U.S. Pat. No. 8,609,670B, the additional recrystallization step after the enantioselective oxidation step according to variant A yielding Intermediate XVIII also improves the quality of the sulfoxide XVII critically. Hereby, Intermediate XVIII is obtained as a water-free form. The water-free material is long-term stable (>12 months) regarding hydrolysis side-reactions, which can occur at two positions of Intermediate XVII by forming the impurities IMP-A and IMP-B (see Scheme 14)."}, "[8]": {"settings": "batch Example 1, Ti content <251 mg/kg"}, "[9]": {"settings": "batch Example 2, Ti content 671 mg/kg"}}, "note": "Read-outs that look alike come from different tables or passages of the source."}
{"compound": "[O-][S@+]1CCc2nc(N3CCC(c4ncc(Cl)cn4)CC3)nc(NC3(CO)CCC3)c21", "note": "[Compound XX, 1-({(5R)-2-[4-(5-CHLOROPYRIMIDINE-2-YL)PIPERIDINE-1-YL]-5-OXIDO-6,7-DIHYDROTHIENO[3,2-D]PYRIMIDINE-4-YL}AMINO)CYCLOBUTYL]METHANOL]", "values": [{"measurement": "PDE4 subunit preference", "setting": "[1]", "value": "preferentially inhibits the PDE4B subunit"}, {"measurement": "lung function decline", "setting": "[2]; IPF patients already taking approved antifibrotics (Nintedanib or Pirfenidon) as background", "value": "reduction in lung function decline could be observed"}, {"measurement": "lung function decline", "setting": "[2]; IPF patients not on approved antifibrotics as background treatment", "value": "reduction in lung function decline could be observed"}, {"measurement": "rate of lung function decline", "setting": "[2]; IPF patients, within 12 weeks of treatment", "value": "reduction in the rate of lung function decline"}]}
{"compound": "[O-][S@+]1CCc2nc(N3CCC(c4ncc(Cl)cn4)CC3)nc(NC3(CO)CCC3)c21", "note": "[Form A]", "values": [{"measurement": "time for full conversion of crystalline Form A into crystalline Form B", "setting": "[3]", "value": "less than 4 hours"}]}
{"compound": "[O-][S@+]1CCc2nc(N3CCC(c4ncc(Cl)cn4)CC3)nc(NC3(CO)CCC3)c21", "note": "[Form B]", "values": [{"measurement": "thermodynamic stability of crystalline form", "setting": "[4]", "value": "thermodynamically most stable form"}]}
{"compound": "CC(C)(C)OC(=O)N1CC=C(c2ncc(Cl)cn2)CC1", "note": "[Intermediate VI]", "values": [{"measurement": "storage stability", "setting": "[5]", "value": "stable for storage at room temperature"}]}
{"compound": "[O-][S@+]1CCc2nc(Cl)nc(NC3(CO)CCC3)c21", "note": "[Intermediate XVII, 1-[[(5R)-2-chloro-6,7-dihydro-5-oxidothieno[3,2-d]pyrimidin-4-yl]amino]-cyclobutanemethanol]", "values": [{"measurement": "IMP-A content in XVII after 1 week at 60° C.", "setting": "[6]; [8]", "value": 0.13, "unit": "%"}, {"measurement": "IMP-A content in XVII after 1 week at 90° C.", "setting": "[6]; [8]", "value": 0.16, "unit": "%"}, {"measurement": "IMP-A content in XVII at t = 0", "setting": "[6]; [8]", "value": 0.10, "unit": "%"}, {"measurement": "IMP-B content in XVII after 1 week at 60° C.", "setting": "[6]; [8]", "value": 0.05, "unit": "%"}, {"measurement": "IMP-B content in XVII after 1 week at 90° C.", "setting": "[6]; [8]", "value": 0.34, "unit": "%"}, {"measurement": "IMP-B content in XVII at t = 0", "setting": "[6]; [8]", "value": "<0.05", "unit": "%"}, {"measurement": "IMP-A content in XVII after 1 week at 60° C.", "setting": "[6]; [9]", "value": 0.19, "unit": "%"}, {"measurement": "IMP-A content in XVII after 1 week at 90° C.", "setting": "[6]; [9]", "value": 0.32, "unit": "%"}, {"measurement": "IMP-A content in XVII at t = 0", "setting": "[6]; [9]", "value": "<0.05", "unit": "%"}, {"measurement": "IMP-B content in XVII after 1 week at 60° C.", "setting": "[6]; [9]", "value": "<0.05", "unit": "%"}, {"measurement": "IMP-B content in XVII after 1 week at 90° C.", "setting": "[6]; [9]", "value": 0.54, "unit": "%"}, {"measurement": "IMP-B content in XVII at t = 0", "setting": "[6]; [9]", "value": "<0.05", "unit": "%"}]}
{"compound": "[O-][S@+]1CCc2nc(Cl)nc(NC3(CO)CCC3)c21", "note": "[Intermediate XVIII]", "values": [{"measurement": "long-term stability regarding hydrolysis side-reactions", "setting": "[7]", "value": "> 12", "unit": "months"}]}
